Test results as given in article PMC9136613 (Acta Pharmaceutica Sinica. B, 2022).

Target: T1, CCT4 (Homo sapiens, UniProt P50991)
T1 sequence (P50991 2-539): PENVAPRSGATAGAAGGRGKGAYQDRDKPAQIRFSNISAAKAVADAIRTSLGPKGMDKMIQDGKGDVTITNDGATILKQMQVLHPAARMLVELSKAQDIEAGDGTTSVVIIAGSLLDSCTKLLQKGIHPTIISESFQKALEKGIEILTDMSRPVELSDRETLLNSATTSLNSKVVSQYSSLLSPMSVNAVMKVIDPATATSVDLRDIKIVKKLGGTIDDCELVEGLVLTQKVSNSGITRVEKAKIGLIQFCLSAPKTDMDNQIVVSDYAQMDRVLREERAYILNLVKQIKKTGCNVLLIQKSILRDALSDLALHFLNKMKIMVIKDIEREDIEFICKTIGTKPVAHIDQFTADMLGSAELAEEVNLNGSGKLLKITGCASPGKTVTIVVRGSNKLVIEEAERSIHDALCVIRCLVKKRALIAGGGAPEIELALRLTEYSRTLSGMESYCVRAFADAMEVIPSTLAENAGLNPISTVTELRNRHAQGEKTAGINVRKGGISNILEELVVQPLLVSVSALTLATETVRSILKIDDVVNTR
Test: SPR on immobilized recombinant CCT4
Type: binding

- Kd: ~2200 nM
Substance: anticarin-β
